Experimental data: patent publication US20160047819A1, “METHOD FOR DIAGNOSING VAGINAL INFECTIONS” (priority 2013, published 2016)

Legend:
[1] = system: Atopobium; test: Real-time PCR of vaginal bacterial communities; type: in vivo
Method: (§1) The qPCR real-time quantitative PCR was used for the identification and quantification of bacterial groups involved in the imbalance that effects the vaginal microbiota, in particular to determine the concentrations of the principal bacterial groups which are known to be affected in the presence of BV such as Lactobacillus, Atopobium, Gardnerella vaginalis, Prevotella, Veillonella, Mobiluncus and Mycoplasma hominis.
(§2) qPCR was performed on DNA samples extracted from CVF of healthy women (H), women affected by BV at V1 (BV), women who were in remission after rifaximin treatment at V3 (R), and women who were not in remission after antibiotic or placebo treatment at V3 (N).
(§3) A total of 80 Belgian pre-menopausal, non-pregnant women, aged between 18 and 50 years were included in the present study. At the screening visit (V1) diagnosis of health or BV was made using both Amsel's criteria and Gram stain Nugent scoring. Patients with Nugent score >3 and positive for at least 3 of 4 Amsel's criteria were considered positive for BV. According to this clinical evaluation, women were split into 2 groups: healthy subjects (H), who had no signs of vaginal tract infection (n=41) and patients affected by BV (n=39).
(§4) Patients who were diagnosed for BV at the study visit V1 were included in a multicentre, double-blind, randomised, placebo-controlled study (EudraCT: 2009-011826-32), that was performed to compare the efficacy of different doses of rifaximin vaginal tablets versus placebo for the treatment of BV. The patients underwent a randomization visit and were distributed into 4 treatment groups: group A received 100 mg rifaximin vaginal tablet once daily for 5 days (n=10), group B received 25 mg rifaximin vaginal tablet once daily for 5 days (n=10), group C received 100 mg rifaximin vaginal tablet once daily for the first 2 days and placebo vaginal tablet for the remaining 3 days (n=9), group D received placebo vaginal tablet once daily for 5 days (n=10). Study medication was administered intra-vaginally at bedtime. After 7 to 10 days from the end of the therapy a follow-up visit (V3) was performed. Remission was evaluated at V3 according to Amsel's criteria (<3) and Gram stain Nugent score (≦3) (Table 1).
(§5) Standardized vaginal rinsings with 2 mL of saline were collected for analysis at V1 and V3 by flushing and re-aspirating the fluid through a 22 Gauge needle in the left, central and right upper vaginal vaults. The vaginal rinsings were subsequently stored at −80° C. until use.
(§6) One mL of each vaginal rinsing was centrifuged at 9500 g for 15 min to separate the pellet, which was processed for bacterial DNA isolation, from the supernatant, used for protein extraction.
(§7) DNA amount was quantified using NanoDrop ND-1000 (NanoDrop® Technologies, Wilmington, Del.).
(§8) Real-time PCR was performed on DNA samples extracted from cervicovaginal fluid (CVF) collected from 41 healthy women (H) and 39 BV-affected women before (BV) and after rifaximin/placebo treatment R (11 women in remission) and N (28 women not in remission).
(§9) Specific primer sets targeted to 16S rRNA gene or 16S-23S rRNA spacer region were used to quantify the following genus or species: Lactobacillus, Gardnerella vaginalis, Atopobium, Prevotella, Veillonella, Mycoplasma hominis and Mobiluncus.

[2] = system: Mobiluncus; test: Real-time PCR of vaginal bacterial communities; type: in vivo
Method: as §1, §2, §3, §4, §5, §6, §7, §8, §9

[3] = system: Gardnerella vaginalis; test: Real-time PCR of vaginal bacterial communities; type: in vivo
Method: as §1, §2, §3, §4, §5, §6, §7, §8, §9

[4] = system: Lactobacillus; test: Real-time PCR of vaginal bacterial communities; type: in vivo
Method: as §1, §2, §3, §4, §5, §6, §7, §8, §9

[5] = system: Veillonella; test: Real-time PCR of vaginal bacterial communities; type: in vivo
Method: as §1, §2, §3, §4, §5, §6, §7, §8, §9

[6] = system: Prevotella; test: Real-time PCR of vaginal bacterial communities; type: in vivo
Method: as §1, §2, §3, §4, §5, §6, §7, §8, §9

[7] = system: Mycoplasma hominis; test: Real-time PCR of vaginal bacterial communities; type: in vivo
Method: as §1, §2, §3, §4, §5, §6, §7, §8, §9

[8] = system: bacterial vaginosis; test: Remission of bacterial vaginosis at V3 by Amsel's criteria and Gram stain Nugent score; type: in vivo, human
Method: Also provided is a diagnostic kit for use characterizing at least one protein useful for identifying the status of a vaginal infection. The kit includes instructions for carrying out a method of diagnosing vaginal infection using mass spectrometry. The diagnostic method of the invention has been tested on vaginal fluids collected from women enrolled in a clinical study of 80 Belgian pre-menopausal, non-pregnant women, aged between 18 and 50 years were analyzed. At the screening visit (V1) diagnosis of health or BV was made using both Amsel's criteria and Gram stain Nugent scoring. Patients with Nugent score >3 and positive for at least 3 of 4 Amsel's criteria were considered positive for BV. According to this clinical evaluation, women were divided into 2 groups: healthy subjects (H), (n=41) and patients diagnosed for BV (n=39). Patients who were diagnosed for BV at the study visit V1 were included in a multicenter, double-blind, randomised, placebo-controlled study reported in U.S. Ser. No. 13/559,013 (EudraCT: 2009-011826-32), that was performed to compare the efficacy of different doses of rifaximin vaginal tablets versus placebo for the treatment of BV. These patients underwent a randomisation visit and were distributed into four treatment groups: • group A received 100 mg rifaximin vaginal tablet once daily for 5 days (n=10), • group B received 25 mg rifaximin vaginal tablet once daily for 5 days (n=10), • group C received 100 mg rifaximin vaginal tablet once daily for the first 2 days and placebo vaginal tablet for the remaining 3 days (n=9), and • group D received placebo vaginal tablet once daily for 5 days (n=10).
After 7 to 10 days from the end of the therapy a follow-up visit (V3) was performed. Remission was evaluated at V3 according to Amsel's criteria (<3) and Gram stain Nugent score ([…]).
as §4
as §4, with “randomisation” for “randomization”

[9] = R group: women in remission after rifaximin treatment at V3
[10] = R group: women in remission after rifaximin treatment at V3, qPCR
[11] = group A: 100 mg vaginal tablet once daily for 5 days (n=10)
[12] = group B: 25 mg vaginal tablet once daily for 5 days (n=10)
[13] = group C: 100 mg vaginal tablet once daily for 2 days, then placebo 3 days (n=9)

With CO[C@H]1/C=C/O[C@@]2(C)Oc3c(C)c(O)c4c(O)c(c5c(nc6cc(C)ccn65)c4c3C2=O)NC(=O)/C(C)=C\C=C\[C@H](C)[C@H](O)[C@@H](C)[C@@H](O)[C@@H](C)[C@H](OC(C)=O)[C@@H]1C [rifaximin] the “Atopobium concentration in R group compared to BV group” value ([1]; R group at V3 vs BV group, still higher than H group) was “significantly lower”, the “Target DNA/genomic vaginal DNA (median), Atopobium” value [1, 9] was 4.86 ng/µg and the “% of women hosting Atopobium” value [1, 10] was 100%. For the same compound, the “Mobiluncus quantification in R group” value ([2]; R group at V3) was “not quantified in any of the women”, the “Target DNA/genomic vaginal DNA (median), Mobiluncus” value [2, 9] was 0.0 ng/µg and the “% of women hosting Mobiluncus” value [2, 10] was 0.0%. For the same compound, the “G. vaginalis concentration in R group” value ([3]; R group at V3) was “very low concentrations”, the “Target DNA/genomic vaginal DNA (median), G. vaginalis” value [3, 9] was 0.0 ng/µg and the “% of women hosting Gardnerella vaginalis” value [3, 10] was 45.5%. The “median value of Lactobacilli in R group relative to BV group” value ([4]; R group after antibiotic treatment vs BV group, higher) was “about 10 times”, the “Target DNA/genomic vaginal DNA (median), Lactobacillus” value [4, 9] was 46.3 ng/µg and the “% of women hosting Lactobacillus” value [4, 10] was 100%. The “Veillonella quantification in R group” value ([5]; R group at V3) was “not quantified in any of the women”, the “Target DNA/genomic vaginal DNA (median), Veillonella” value [5, 9] was 0.0 ng/µg and the “% of women hosting Veillonella” value [5, 10] was 0.0%. For the same compound, the “Prevotella concentration in R group” value ([6]; R group at V3) was “very low concentrations”, the “Target DNA/genomic vaginal DNA (median), Prevotella” value [6, 9] was 0.0451 ng/µg and the “% of women hosting Prevotella” value [6, 10] was 81.8%. The “M. hominis in R group compared to BV group” value ([7]; R group at V3 vs BV group) was “significant reduction”, the “Target DNA/genomic vaginal DNA (median), Mycoplasma hominis” value [7, 9] was 0.00156 ng/µg and the “% of women hosting Mycoplasma hominis” value [7, 10] was 63.6%. The “women in remission after treatment” value [8, 11] was 2 women, the “women not in remission after treatment” value [8, 11] was 8 women and the “women in remission after treatment” value [8, 12] was 5 women. For the same compound, the “women not in remission after treatment” value [8, 12] was 5 women, the “women in remission after treatment” value [8, 13] was 4 women and the “women not in remission after treatment” value [8, 13] was 5 women. For the same compound, the “women in remission (R), all treatment groups” value ([8]; of 39 BV-affected women after rifaximin/placebo treatment) was 11 women.
